Experimental data reported in ChEMBL document CHEMBL6120973 (J Med Chem, 2024).
Values after ≈ are worked out from the molar mass of the structure shown.

Experiments:
[1] = tested on: Human immunodeficiency virus 1; experiment: Antiviral activity against HIV-1 harboring RT K103N/Y181C double mutant infected in human MT4 cells assessed as protection against virus-induced cytopathic effect incubated for 5 days by MTT assay; type: functional, organism-based; details: Human immunodeficiency virus 1, MT4, 120 h
[2] = Acute toxicity in female ICR mouse assessed as effect on pathological damage in heart at 2000 mg/kg, IG measured after 14 days by H and E staining based analysis; type: organism-based; details: in vivo, po, 336 h, time 14 day
[3] = tested on: Human immunodeficiency virus 1; experiment: Antiviral activity against HIV-1 harboring RT F227L/V106A double mutant infected in human MT4 cells assessed as protection against virus-induced cytopathic effect incubated for 5 days by MTT assay; type: functional, organism-based; details: Human immunodeficiency virus 1, MT4, 120 h
[4] = tested on: Human immunodeficiency virus 1; experiment: Antiviral activity against wildtype HIV-1 IIIB infected in human MT4 cells assessed as protection against virus-induced cytopathic effect incubated for 5 days by MTT assay; type: functional, organism-based; details: Human immunodeficiency virus 1, IIIB, MT4, 120 h
Cytochrome P450 2C19 = Cytochrome P450 2C19 (Homo sapiens, UniProt P33261); experiment: Inhibition of CYP2C19 in human liver microsomes preincubated for 10 mins followed by NADPH addition and measured after 15 mins by LC/MS/MS analysis
Chain of Cytochrome P450 2C19 (P33261 whole entry): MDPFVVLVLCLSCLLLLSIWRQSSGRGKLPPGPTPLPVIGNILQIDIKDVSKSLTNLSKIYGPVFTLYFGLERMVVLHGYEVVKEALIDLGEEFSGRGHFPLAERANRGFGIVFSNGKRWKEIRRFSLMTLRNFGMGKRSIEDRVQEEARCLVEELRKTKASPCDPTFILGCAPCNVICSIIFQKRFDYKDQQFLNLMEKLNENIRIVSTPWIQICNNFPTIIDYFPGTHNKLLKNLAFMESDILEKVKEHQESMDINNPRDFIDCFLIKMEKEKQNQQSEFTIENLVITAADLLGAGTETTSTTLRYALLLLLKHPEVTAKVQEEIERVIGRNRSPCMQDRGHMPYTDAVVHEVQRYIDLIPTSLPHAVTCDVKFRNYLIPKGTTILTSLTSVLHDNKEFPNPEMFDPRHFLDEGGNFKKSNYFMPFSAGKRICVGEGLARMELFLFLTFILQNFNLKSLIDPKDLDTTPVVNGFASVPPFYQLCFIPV

[5] = Acute toxicity in male ICR mouse assessed as effect on pathological damage in brain at 2000 mg/kg, IG measured after 14 days by H and E staining based analysis; type: organism-based; details: in vivo, po, 336 h, time 14 day
[6] = Acute toxicity in male ICR mouse assessed as effect on pathological damage in lung at 2000 mg/kg, IG measured after 14 days by H and E staining based analysis; type: organism-based; details: in vivo, po, 336 h, time 14 day
[7] = Acute toxicity in male ICR mouse assessed as effect on pathological damage in heart at 2000 mg/kg, IG measured after 14 days by H and E staining based analysis; type: organism-based; details: in vivo, po, 336 h, time 14 day
[8] = Selectivity index, ratio of CC50 for human MT4 cells to EC50 for wild type HIV-1 IIIB infected in human MT4 cellS; details: MT4 cells
[9] = Acute toxicity in male ICR mouse assessed as effect on behavior at 2000 mg/kg, IG measured after 14 days; type: organism-based; details: in vivo, po, 336 h, time 14 day
[10] = Solubility of compound in phosphate buffer at pH 2.0 measured after 24 hrs by HPLC analysis; type: physicochemical
[11] = Solubility of compound in phosphate buffer at pH 7.0 measured after 24 hrs by HPLC analysis; type: physicochemical
[12] = Metabolic stability in human liver microsomes assessed as half-life at 0.1 uM preincubated for 10 mins followed by NADPH addition and measured upto 60 mins by LC-MS/MS analysis; type: ADME, Microsome; details: time < 70 min
[13] = Acute toxicity in female ICR mouse assessed as effect on behavior at 2000 mg/kg, IG measured after 14 days; type: organism-based; details: in vivo, po, 336 h, time 14 day
Cytochrome P450 1A2 = biological target: T1, Cytochrome P450 1A2 (Homo sapiens, UniProt P05177); experiment: Inhibition of CYP1A2 in human liver microsomes preincubated for 10 mins followed by NADPH addition and measured after 15 mins by LC/MS/MS analysis
T1 sequence (P05177 whole entry): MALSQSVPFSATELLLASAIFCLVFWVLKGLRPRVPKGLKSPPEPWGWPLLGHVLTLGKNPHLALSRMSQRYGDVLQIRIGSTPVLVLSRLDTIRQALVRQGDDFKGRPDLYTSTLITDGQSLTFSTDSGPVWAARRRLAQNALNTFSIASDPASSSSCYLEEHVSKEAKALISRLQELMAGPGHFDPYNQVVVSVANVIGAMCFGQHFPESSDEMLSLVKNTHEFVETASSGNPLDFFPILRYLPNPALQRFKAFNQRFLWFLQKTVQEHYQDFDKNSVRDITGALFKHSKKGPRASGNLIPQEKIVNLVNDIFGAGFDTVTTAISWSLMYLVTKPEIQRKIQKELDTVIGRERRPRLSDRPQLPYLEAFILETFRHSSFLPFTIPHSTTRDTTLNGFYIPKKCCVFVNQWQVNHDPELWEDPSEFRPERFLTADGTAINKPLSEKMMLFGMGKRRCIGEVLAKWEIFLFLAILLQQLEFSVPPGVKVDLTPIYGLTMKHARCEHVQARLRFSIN

[14] = Acute toxicity in female ICR mouse assessed as effect on body weight at 2000 mg/kg, IG measured after 14 days; type: organism-based; details: in vivo, po, 336 h, time 14 day
Cytochrome P450 2D6 = Cytochrome P450 2D6 (Homo sapiens, UniProt P10635); experiment: Inhibition of CYP2D6 in human liver microsomes preincubated for 10 mins followed by NADPH addition and measured after 15 mins by LC/MS/MS analysis
Chain of Cytochrome P450 2D6 (P10635 whole entry): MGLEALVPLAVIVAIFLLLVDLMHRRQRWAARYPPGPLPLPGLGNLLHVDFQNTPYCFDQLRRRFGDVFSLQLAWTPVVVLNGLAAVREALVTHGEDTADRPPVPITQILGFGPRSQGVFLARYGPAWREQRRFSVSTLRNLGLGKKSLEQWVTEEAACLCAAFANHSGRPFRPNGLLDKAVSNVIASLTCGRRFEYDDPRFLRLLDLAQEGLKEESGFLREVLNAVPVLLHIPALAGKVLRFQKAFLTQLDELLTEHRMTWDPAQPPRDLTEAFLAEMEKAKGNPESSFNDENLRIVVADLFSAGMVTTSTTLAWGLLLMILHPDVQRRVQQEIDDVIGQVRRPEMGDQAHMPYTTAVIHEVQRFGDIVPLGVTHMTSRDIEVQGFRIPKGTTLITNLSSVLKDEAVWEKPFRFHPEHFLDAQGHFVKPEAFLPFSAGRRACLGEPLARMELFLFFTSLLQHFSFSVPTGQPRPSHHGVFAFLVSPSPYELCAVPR

[15] = tested on: Human immunodeficiency virus 1; experiment: Antiviral activity against HIV-1 harboring RT L100I mutant infected in human MT4 cells assessed as protection against virus-induced cytopathic effect incubated for 5 days by MTT assay; type: functional, organism-based; details: Human immunodeficiency virus 1, MT4, 120 h
[16] = biological target: Voltage-gated inwardly rectifying potassium channel KCNH2 (Homo sapiens, UniProt Q12809); experiment: Inhibition of human ERG expressed in CHO cells at holding potential of -80 mV by automated patch clamp electrophysiological method; type: toxicity, cell-based
Chain of Voltage-gated inwardly rectifying potassium channel KCNH2 (Q12809 whole entry): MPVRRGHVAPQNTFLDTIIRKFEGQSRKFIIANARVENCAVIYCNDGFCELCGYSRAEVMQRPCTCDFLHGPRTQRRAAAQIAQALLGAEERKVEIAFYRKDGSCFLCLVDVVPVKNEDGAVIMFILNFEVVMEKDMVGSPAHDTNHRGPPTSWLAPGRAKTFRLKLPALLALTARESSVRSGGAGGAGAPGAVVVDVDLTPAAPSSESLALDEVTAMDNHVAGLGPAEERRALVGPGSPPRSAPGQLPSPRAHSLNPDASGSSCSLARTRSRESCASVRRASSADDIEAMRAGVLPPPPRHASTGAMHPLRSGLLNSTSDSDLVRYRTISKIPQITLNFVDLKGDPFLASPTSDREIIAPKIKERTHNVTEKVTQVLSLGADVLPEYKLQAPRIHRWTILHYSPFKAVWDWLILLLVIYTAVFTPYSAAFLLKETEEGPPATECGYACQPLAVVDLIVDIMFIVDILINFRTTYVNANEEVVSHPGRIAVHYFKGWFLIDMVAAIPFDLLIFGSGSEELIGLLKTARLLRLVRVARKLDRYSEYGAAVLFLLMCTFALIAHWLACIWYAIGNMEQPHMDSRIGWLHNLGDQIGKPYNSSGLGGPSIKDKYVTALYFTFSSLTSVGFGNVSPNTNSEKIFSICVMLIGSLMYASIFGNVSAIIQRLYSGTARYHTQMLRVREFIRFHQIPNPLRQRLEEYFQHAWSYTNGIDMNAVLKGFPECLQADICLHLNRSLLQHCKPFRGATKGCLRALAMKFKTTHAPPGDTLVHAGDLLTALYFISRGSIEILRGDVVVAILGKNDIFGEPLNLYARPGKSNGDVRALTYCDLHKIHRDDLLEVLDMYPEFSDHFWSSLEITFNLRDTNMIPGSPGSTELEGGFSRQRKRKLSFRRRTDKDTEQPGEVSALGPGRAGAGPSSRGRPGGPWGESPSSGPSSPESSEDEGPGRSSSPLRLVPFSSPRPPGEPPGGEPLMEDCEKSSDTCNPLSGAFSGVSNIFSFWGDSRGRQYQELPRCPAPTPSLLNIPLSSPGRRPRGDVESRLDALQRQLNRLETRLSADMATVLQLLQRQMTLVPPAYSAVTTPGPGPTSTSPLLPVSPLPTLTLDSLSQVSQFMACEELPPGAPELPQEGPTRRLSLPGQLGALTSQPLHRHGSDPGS

[17] = Acute toxicity in male ICR mouse assessed as effect on pathological damage in liver at 2000 mg/kg, IG measured after 14 days by H and E staining based analysis; type: organism-based; details: in vivo, po, 336 h, time 14 day
[18] = tested on: Human immunodeficiency virus 1; experiment: Potency index, ratio of 4-(8-(3-nitrophenyl)-1,7-naphthyridin-6-yl)benzoic acid MIC to test compound MIC for antiviral activity against wildtype HIV-1 IIIB infected in human MT4 cells assessed as protection against virus-induced cytopathic effect incubated for 5 days by MTT assay; type: functional; details: time 5 day
hERG = hERG (Homo sapiens, UniProt Q12809); experiment: Inhibition of human ERG expressed in CHO cells at holding potential of -80 mV at >40 uM by automated patch clamp electrophysiological method relative to control; type: toxicity, cell-based; details: CHO cells that express hERG
Chain of hERG (Q12809 whole entry): as above

[19] = Acute toxicity in female ICR mouse assessed as effect on pathological damage in liver at 2000 mg/kg, IG measured after 14 days by H and E staining based analysis; type: organism-based; details: in vivo, po, 336 h, time 14 day
[20] = tested on: Human immunodeficiency virus 1; experiment: Antiviral activity against HIV-1 harboring RT K103N mutant infected in human MT4 cells assessed as protection against virus-induced cytopathic effect incubated for 5 days by MTT assay; type: functional, organism-based; details: Human immunodeficiency virus 1, MT4, 120 h
[21] = Acute toxicity in female ICR mouse assessed as effect on pathological damage in brain at 2000 mg/kg, IG measured after 14 days by H and E staining based analysis; type: organism-based; details: in vivo, po, 336 h, time 14 day
[22] = tested on: Human immunodeficiency virus 1; experiment: Antiviral activity against HIV-1 harboring RT Y188L mutant infected in human MT4 cells assessed as protection against virus-induced cytopathic effect incubated for 5 days by MTT assay; type: functional, organism-based; details: Human immunodeficiency virus 1, MT4, 120 h
Cytochrome P450 3A4 = Cytochrome P450 3A4 (Homo sapiens, UniProt P08684); experiment: Inhibition of CYP3A4 in human liver microsomes using midazolam as substrate preincubated for 10 mins followed by NADPH addition and measured after 15 mins by LC/MS/MS analysis
Chain of Cytochrome P450 3A4 (P08684 whole entry): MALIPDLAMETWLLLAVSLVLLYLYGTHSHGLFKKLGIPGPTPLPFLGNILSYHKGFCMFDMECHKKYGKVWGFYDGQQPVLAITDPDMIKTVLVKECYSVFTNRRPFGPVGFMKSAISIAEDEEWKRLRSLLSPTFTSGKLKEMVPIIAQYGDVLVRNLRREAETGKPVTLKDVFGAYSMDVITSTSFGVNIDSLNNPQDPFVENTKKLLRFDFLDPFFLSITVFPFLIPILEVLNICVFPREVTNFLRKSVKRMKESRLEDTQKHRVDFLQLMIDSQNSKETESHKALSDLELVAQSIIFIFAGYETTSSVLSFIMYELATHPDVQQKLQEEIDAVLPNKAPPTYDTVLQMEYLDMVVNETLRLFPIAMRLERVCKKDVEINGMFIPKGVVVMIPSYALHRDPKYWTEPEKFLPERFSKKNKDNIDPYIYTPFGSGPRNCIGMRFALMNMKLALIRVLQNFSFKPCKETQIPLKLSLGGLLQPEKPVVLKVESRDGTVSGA

[23] = Metabolic stability in rat liver microsomes assessed as half-life at 0.1 uM preincubated for 10 mins followed by NADPH addition and measured upto 60 mins by LC-MS/MS analysis; type: ADME, Microsome; details: time < 70 min
[24] = Acute toxicity in male ICR mouse assessed as effect on body weight at 2000 mg/kg, IG measured after 14 days; type: organism-based; details: in vivo, po, 336 h, time 14 day
[25] = Acute toxicity in male ICR mouse assessed as effect on pathological damage in kidney at 2000 mg/kg, IG measured after 14 days by H and E staining based analysis; type: organism-based; details: in vivo, po, 336 h, time 14 day

## Cc1cc(-c2ccncc2)cc(C)c1Nc1nc(Nc2ccc(C#N)cc2)ncc1-c1cn[nH]c1
[1]
  EC50: 42 nM
[2]
  Activity: Non-toxic
[3]
  EC50: 79 nM
[4]
  EC50: 5 nM
Cytochrome P450 2C19
  IC50: > 50000 nM
[5]
  Activity: Non-toxic
[6]
  Activity: Non-toxic
[7]
  Activity: Non-toxic
[8]
  selectivity ratio: > 52600
[9]
  Activity: Non-toxic
[10]
  solubility at 24 h: 1190 µg/mL (≈ 2600 µM)
[11]
  solubility at 24 h: < 1 µg/mL
[12]
  half-life at 0.1 µM: 29.9 min
[13]
  Activity: Non-toxic
Cytochrome P450 1A2
  IC50: > 50000 nM
[14]
  Activity: Non-toxic
Cytochrome P450 2D6
  IC50: > 50000 nM
[15]
  EC50: 9 nM
[16]
  IC50: > 40000 nM
[17]
  Activity: Non-toxic
[18]
  Ratio: 37
hERG
  inhibition at 40 µM: 31.4%
[19]
  Activity: Non-toxic
[20]
  EC50: 7 nM
[21]
  Activity: Non-toxic
[22]
  EC50: 13 nM
Cytochrome P450 3A4
  IC50: > 50000 nM
[23]
  half-life at 0.1 µM: 20.4 min
[24]
  Activity: Non-toxic
[25]
  Activity: Non-toxic
